Here are results for 56 molecules from patent US9440952B2, “Compounds inhibiting leucine-rich repeat kinase enzyme activity” (Merck Sharp & Dohme Corp., priority 2013, dated 2016).

The target in one assay is T1, LRRK2(G2019S mutation, GST-LRRK2(amino acids 970-2527)) (Homo sapiens, UniProt Q5S007, G2019S).
T1 construct: GST-LRRK2(amino acids 970-2527); GST (N); purchased Life Technologies Corporation
T1 sequence (Q5S007 970-2527 G2019S): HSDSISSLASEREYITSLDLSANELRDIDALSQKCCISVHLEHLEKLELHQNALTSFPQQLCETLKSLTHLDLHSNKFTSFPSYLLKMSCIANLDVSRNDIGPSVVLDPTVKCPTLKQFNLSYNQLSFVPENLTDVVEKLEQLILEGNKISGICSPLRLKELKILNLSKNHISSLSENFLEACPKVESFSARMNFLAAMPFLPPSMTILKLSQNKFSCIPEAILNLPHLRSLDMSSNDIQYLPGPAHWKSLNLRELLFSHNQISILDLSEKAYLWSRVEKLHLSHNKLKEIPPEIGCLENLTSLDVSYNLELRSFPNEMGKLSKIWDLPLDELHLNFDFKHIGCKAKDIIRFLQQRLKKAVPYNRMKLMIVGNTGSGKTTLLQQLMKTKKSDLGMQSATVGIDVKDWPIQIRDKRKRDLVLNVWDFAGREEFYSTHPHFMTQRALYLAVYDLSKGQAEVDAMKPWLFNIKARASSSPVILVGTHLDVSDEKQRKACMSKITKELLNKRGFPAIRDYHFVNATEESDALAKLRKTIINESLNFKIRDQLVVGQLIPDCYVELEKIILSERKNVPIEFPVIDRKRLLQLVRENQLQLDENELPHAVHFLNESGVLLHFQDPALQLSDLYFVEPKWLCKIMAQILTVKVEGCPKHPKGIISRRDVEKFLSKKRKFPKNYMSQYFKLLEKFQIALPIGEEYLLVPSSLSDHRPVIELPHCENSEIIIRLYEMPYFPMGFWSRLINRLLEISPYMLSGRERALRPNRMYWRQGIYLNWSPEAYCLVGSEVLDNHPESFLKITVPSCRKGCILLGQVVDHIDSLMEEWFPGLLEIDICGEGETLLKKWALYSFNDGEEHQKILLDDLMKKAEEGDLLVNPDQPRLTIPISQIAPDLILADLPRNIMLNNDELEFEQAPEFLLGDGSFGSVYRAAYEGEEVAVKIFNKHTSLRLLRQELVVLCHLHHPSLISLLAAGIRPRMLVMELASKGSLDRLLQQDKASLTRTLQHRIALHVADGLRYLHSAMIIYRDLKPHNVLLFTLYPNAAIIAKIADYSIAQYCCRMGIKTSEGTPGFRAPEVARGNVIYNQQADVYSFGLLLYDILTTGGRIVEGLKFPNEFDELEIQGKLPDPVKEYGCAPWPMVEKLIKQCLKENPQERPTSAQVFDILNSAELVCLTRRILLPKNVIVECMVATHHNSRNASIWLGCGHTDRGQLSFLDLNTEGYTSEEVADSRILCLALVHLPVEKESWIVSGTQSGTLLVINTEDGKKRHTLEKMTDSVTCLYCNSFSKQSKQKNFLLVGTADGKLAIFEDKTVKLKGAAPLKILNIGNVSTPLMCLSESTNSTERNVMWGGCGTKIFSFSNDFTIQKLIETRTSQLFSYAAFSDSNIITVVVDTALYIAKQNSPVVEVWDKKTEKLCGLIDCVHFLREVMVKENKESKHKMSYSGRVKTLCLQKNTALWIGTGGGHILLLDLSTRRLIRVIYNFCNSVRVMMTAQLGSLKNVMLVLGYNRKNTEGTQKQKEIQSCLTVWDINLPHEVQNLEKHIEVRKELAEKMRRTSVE
Description: LRRK2 Km ATP LanthaScreen Assay. The settings on record: Km ATP LanthaScreen Assay; LRRK2 G2019S; mean IC50 values; Examples 185-215; read-out: LRRK2 IC5). The class given is biochemical. On the procedure:
Unless otherwise noted, all LRRK2 IC50 data presented in tables refers to the LRRK2 Km ATP LanthaScreen™ Assay that is described in the Biological Assay section.
The data presented for the 5 mM and Km ATP LanthaScreen™ Assay represents mean IC50 values based on several test results and may have reasonable. deviations depending on the specific conditions and reagents used. Reagents for the LRRK2 5 mM and Km ATP LanthaScreen™ Assay were purchased from Life Technologies Corporation.
Results are analysed using Assay Data Analyzer.
(Time-resolved FRET reads energy transfer from a long-lived donor to a nearby acceptor.)
As for `CC(C)Oc1ccc2[nH]nc(-c3ccnc(N4CCN(c5ncccn5)CC4)c3)c2c1` [Example 204], the IC50 was determined as 7.9 nM.
On the same count and under the same terms, the figure for `CC(C)Oc1ccc2[nH]nc(-c3ccnc(N4CC(n5cccn5)C4)c3)c2c1` [Example 190] is 13.2 nM.
Still for that read-out and setting: for `CC(C)Oc1ccc2[nH]nc(-c3ccnc(N4CCN(c5nccs5)CC4)c3)c2c1` [Example 203] the value was 13.4 nM.
Same read-out and setting: for `Cc1ncc(N2CCN(c3cc(-c4n[nH]c5ccc(OC(C)C)cc45)ccn3)CC2)s1` [Example 206] the value was 10.5 nM.

The same assay, now with this note: Km ATP LanthaScreen Assay; LRRK2 G2019S; mean IC50 values; read-out: LRRK2 IC50.
As to `c1ccc2c(-c3ccnc(N4CCSCC4)c3)n[nH]c2c1` [Example 12], the IC50 was 46 nM.
Same read-out and setting: for `CCOc1ccc2[nH]nc(-c3ccnc(N4C[C@@H]5C[C@H]4CO5)c3)c2c1` [Example 221] the value was 20.9 nM; for `CC(C)Oc1ccc2[nH]nc(-c3ccnc(NC(=O)c4ccccn4)c3)c2c1` [Example 144], 29.2 nM; for `CS(=O)(=O)C1CN(c2cc(-c3n[nH]c4ccc(O)cc34)ccn2)C1` [Example 255], 30.8 nM.
The same measure, in the same setting: for `c1ccc2c(-c3ccnc(NCCCn4ccnc4)c3)n[nH]c2c1` [Example 42] the value was 31 nM; for `OCCOCCNc1cc(-c2n[nH]c3ccccc23)ccn1` [Example 58], 51 nM; for `CN1CCC2(CCN(c3cc(-c4n[nH]c5ccccc45)ccn3)C2)C1` (centres unmarked) [Example 34], 22 nM.
In the case of `OCCC1CN(c2cc(-c3n[nH]c4ccccc34)ccn2)CCO1` (centres unmarked) [Example 66], the IC50 stood at 15 nM.
Still for that read-out and setting: for `FC(F)(F)Oc1ccc2[nH]nc(-c3ccnc(N4CCN(C5CC5)CC4)c3)c2c1` [Example 244] the value was 188 nM; for `FC1CCCN(c2cc(-c3n[nH]c4ccccc34)ccn2)C1` (centres unmarked) [Example 21], 22 nM.
The same measure, in the same setting: the figure for `FC(F)(F)Oc1ccc2[nH]nc(-c3ccnc(N4CC(n5cccn5)C4)c3)c2c1` [Example 241] is 315 nM; for `NC(=O)C1CCCN(c2cc(-c3n[nH]c4ccccc34)ccn2)C1` (centres unmarked) [Example 71] it is 16 nM.
Still for that read-out and setting: the figure for `CN(C)c1cc(-c2n[nH]c3ccc(Nc4cccc(S(C)(=O)=O)c4)cc23)ccn1` [Example 109] is 34 nM; for `CC1=NC2(CCCN(c3cc(-c4n[nH]c5ccccc45)ccn3)C2)C(=O)N1` (centres unmarked) [Example 60] it is 202 nM; for `Cc1cc(CC(=O)Nc2cc(-c3n[nH]c4ccc(OC(C)C)cc34)ccn2)on1` [Example 155] it is 13.4 nM.
Regarding `CC(C)Oc1ccc2[nH]nc(-c3ccnc(NC(=O)C4CCN(c5ccccn5)C4)c3)c2c1` (centres unmarked) [Example 167], the IC50 turned out to be 78 nM.
With `FC(F)(F)Oc1ccc2[nH]nc(-c3ccnc(N4CCCCC4)c3)c2c1` [Example 232], the IC50 was 279 nM.
As to `CC(C)CCC(=O)Nc1cc(-c2n[nH]c3ccc(OC(C)C)cc23)ccn1` [Example 149], the IC50 is 79.6 nM.
On the same count and under the same terms, the figure for `FC1(F)CCN(c2cc(-c3n[nH]c4ccc(OC(F)(F)F)cc34)ccn2)CC1` [Example 243] is 1060 nM; for `CCOc1ccc2[nH]nc(-c3ccnc(N4CCC(C#N)(c5ccccc5)C4)c3)c2c1` (centres unmarked) [Example 225] it is 16.3 nM.

Staying with this assay, now noted: Km ATP LanthaScreen; mean IC50 of several tests; read-out: LRRK2 IC50.
For `CC(C)Oc1ccc2[nH]nc(-c3ccnc(N4CCC(F)(F)CC4)c3)c2c1` [Example 287], the IC50 was found to be 14 nM.
Same read-out and setting: the figure for `CCCOc1ccc2[nH]nc(-c3ccnc(N4CCCCC4)c3)c2c1` [Example 300] is 31 nM.
The same measure, in the same setting: the figure for `COc1cccc(S(=O)(=O)Nc2cc(-c3n[nH]c4ccc(OC(C)C)cc34)ccn2)c1` [Example 257] is 78.4 nM.
Same read-out and setting: for `Cc1ncc(-c2cc3c(-c4ccnc(N5CC(F)C5)c4)n[nH]c3cc2F)n1C` [Example 310] the value was 95 nM.
In the case of `CC(C)Oc1cc2c(-c3ccnc(N4CCOCC4)c3)n[nH]c2cc1F` [Example 364], the IC50 was found to be 1.9 nM.
On to `Cc1cc2[nH]nc(-c3ccnc(N4CCOCC4)c3)c2cc1OC(C)C` [Example 397], for which the IC50 stood at 167 nM.
For `CC(C)Oc1ccc2[nH]nc(-c3ccnc(N4CCN(C(=O)C5CC5)C(C)C4)c3)c2c1` (centres unmarked) [Example 386], the IC50 came out at 2.8 nM.
With `c1ccc2c(-c3ccnc(N4CCNCC4)c3)n[nH]c2c1` [Example 75], the IC50 is 80 nM.
In the case of `COC(=O)c1ccc2[nH]nc(-c3ccnc(N4CCOCC4)c3)c2c1` [Example 393], the IC50 turned out to be 15 nM.
On the same count and under the same terms, for `c1cnc(-c2ccc3[nH]nc(-c4ccnc(N5CCOCC5)c4)c3c2)cn1` [Example 324] the value was 1.1 nM.
With `CCOc1ccc2[nH]nc(-c3ccnc(N4CC(OC)C4)c3)c2c1` [Example 359], the IC50 worked out at 15 nM.
The same measure, in the same setting: for `Cn1cc(-c2ccc3[nH]nc(-c4ccnc(N5CCC(C(=O)O)CC5)c4)c3c2)cn1` [Example 304] the value was 3.6 nM; for `c1ccc2c(-c3ccnc(N4CCOCC4)c3)n[nH]c2c1` [Example 1], 16 nM; for `CCOc1ccc2[nH]nc(-c3ccnc(N[C@@H](C)COC)c3)c2c1` [Example 356], 10 nM.
On the same count and under the same terms, for `Cn1cc(-c2ccc3[nH]nc(-c4ccnc(N5CCCC5)c4)c3c2)cn1` [Example 267] the value was 2.9 nM; for `CCc1cnc(-c2ccc3[nH]nc(-c4ccnc(N5CCOCC5)c4)c3c2)nc1` [Example 330], 5.6 nM; for `CC(C)Oc1ccc2[nH]nc(-c3ccnc(NS(=O)(=O)Cc4ccccn4)c3)c2c1` [Example 261], 124 nM.
On the same count and under the same terms, the figure for `CC(C)Oc1ccc2[nH]nc(-c3ccnc(N4CCN(S(C)(=O)=O)C(C)C4)c3)c2c1` (centres unmarked) [Example 385] is 2.2 nM.
As for `Oc1cc(-c2ccc3[nH]nc(-c4ccnc(N5CCNCC5)c4)c3c2)ccn1` [Example 120], the IC50 is 3.4 nM.
The same measure, in the same setting: the figure for `Cc1noc(C2CN(c3cc(-c4n[nH]c5ccc(-c6cnn(C)c6)cc45)ccn3)C2)n1` [Example 275] is 5.6 nM.
The same measure, in the same setting: for `COCCNc1cc(-c2n[nH]c3ccc(OC(C)C)cc23)ccn1` [Example 292] the value was 5.9 nM; for `Cc1ncc(-c2ccc3[nH]nc(-c4ccnc(N5CC(F)C5)c4)c3c2)n1C` [Example 307], 2.1 nM.
`Cn1cc(-c2ccc3[nH]nc(-c4ccnc(N5CCN(CCO)CC5)c4)c3c2)cn1` [Example 265]: the IC50 was found to be 1.7 nM.
The same measure, in the same setting: for `Cn1cc(-c2ccc3[nH]nc(-c4ccnc(N5CC[C@H](F)C5)c4)c3c2)cn1` [Example 278] the value was 1.9 nM; for `CCCc1cnc(-c2ccc3[nH]nc(-c4ccnc(N5CCOCC5)c4)c3c2)nc1` [Example 335], 5.4 nM.
Same read-out and setting: for `c1ccc(-c2ccc3c(-c4ccnc(N5CCOCC5)c4)n[nH]c3c2)cc1` [Example 125] the value was 34 nM; for `Cn1cnnc1-c1ccc2[nH]nc(-c3ccnc(N4CC(F)C4)c3)c2c1` [Example 309], 1.8 nM.
For `COc1ccc2[nH]nc(-c3ccnc(N4CCOCC4)c3)c2c1` [Example 79], the IC50 stood at 7.4 nM.
On the same count and under the same terms, the figure for `CS(=O)(=O)c1cccc(Nc2ccc3[nH]nc(-c4ccnc(N5CCOCC5)c4)c3c2)c1` [Example 108] is 9.3 nM; for `Cc1nnc(-c2ccc3[nH]nc(-c4ccnc(N5CCOCC5)c4)c3c2)o1` [Ex 342] it is 0.61 nM; for `Cn1cc(-c2ccc3[nH]nc(-c4ccnc(N5CCN(c6ccncn6)CC5)c4)c3c2)cn1` [Example 277] it is 2.1 nM.
On the same count and under the same terms, for `Clc1cnc(-c2ccc3[nH]nc(-c4ccnc(N5CCOCC5)c4)c3c2)nc1` [Example 334] the value was 52 nM.
